The structures appear in SMILES notation. Where only a bound is given, the exact number is not on record here.

LMPTP-A (Low Molecular Weight Protein Tyrosine Phosphatase-A) enzyme, sequence (P24666 whole entry): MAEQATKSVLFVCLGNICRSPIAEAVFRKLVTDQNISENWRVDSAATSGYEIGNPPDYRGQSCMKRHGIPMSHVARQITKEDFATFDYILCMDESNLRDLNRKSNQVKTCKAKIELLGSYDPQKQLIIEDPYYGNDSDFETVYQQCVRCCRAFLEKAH

This experiment addresses LMPTP-A (Low Molecular Weight Protein Tyrosine Phosphatase-A) enzyme (Homo sapiens (Human), UniProt P24666). In words: LMPTP primary screening / LMPTP (OMFP) enzyme inhibition assay, fluorescence intensity. As to conditions: LMPTP-A, OMFP substrate, method of Example 2; read-out: IC50. It counts as biochemical. A digest of the protocol:
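0.625 nM LMPTP-A with 400 μM OMFP substrate in 50 mM Bis-Tris pH 6.0, 1 mM DTT, 0.01% Triton X-100, […]. Compounds at 20 μM final. Incubated 50 min at room temperature in the dark; fluorescence intensity read.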
In the case of `Clc1cccc(-c2cc(Nc3cccc(CC4CCNCC4)c3)c3ccccc3n2)c1` [Compound I20, [2-(3-chlorophenyl)(4-quinolyl)][3-(4-piperidylmethyl)phenyl]amine], the IC50 was 0.801 to 5 µM.
`Clc1cccc(-c2cc(Nc3ccccc3CC3CCNCC3)c3ccccc3n2)c1` [Compound I21, [2-(3-chlorophenyl)(4-quinolyl)][2-(4-piperidylmethyl)phenyl]amine]: the IC50 fell in the range of 0.801 to 5 µM.
On to `CN(C)Cc1cccc(Nc2cc(-c3cccc(Cl)c3)nc3ccccc23)c1` [Compound I22, [(3-{[2-(3-chlorophenyl)(4-quinolyl)]amino}phenyl)methyl]dimethylamine], for which the IC50 is 0.2 to 0.8 µM.
Under `COc1ccc(-c2cc(Nc3ccc(CN4CCCCC4)cc3)c3ccccc3n2)cc1` [Compound I23, [2-(4-methoxyphenyl)(4-quinolyl)][4-(piperidylmethyl)phenyl]amine] stands 0.801 to 5 µM.
Then `COc1ccc(-c2cc(NCCC3CCCN3C)c3ccccc3n2)cc1` (centres unmarked) [Compound I24, [2-(4-methoxyphenyl)(4-quinolyl)][2-(1-methylpyrrolidin-2-yl)ethyl]amine], with 0.801 to 5 µM; and `COc1ccc(-c2cc(Nc3cccc(N(C)C)c3)c3ccccc3n2)cc1` [Compound I25, (3-{[2-(4-methoxyphenyl)(4-quinolyl)]amino}phenyl)dimethylamine], with 0.801 to 5 µM; and `COc1ccc(-c2cc(Nc3ccc(CN(C)C)cc3)c3ccccc3n2)cc1` [Compound I26, [(4-{[2-(4-methoxyphenyl)(4-quinolyl)]amino}phenyl)methyl]dimethylamine], with 0.801 to 5 µM.
Under `COc1ccc(-c2cc(Nc3cccc(Cc4nn[nH]n4)c3)c3ccccc3n2)cc1` [Compound I27, [2-(4-methoxyphenyl)(4-quinolyl)][3-(2H-1,2,3,4-tetraazol-5-ylmethyl)phenyl]amine] stands 0.801 to 5 µM; under `COc1ccc(-c2cc(Nc3cccc(CC4CCN(S(C)(=O)=O)CC4)c3)c3ccccc3n2)cc1` [Compound I28, 4-[(3-{[2-(4-methoxyphenyl)(4-quinolyl)]amino}phenyl)methyl]-1-(methylsulfonyl)piperidine], 0.801 to 5 µM.
`COc1ccc(-c2cc(Nc3cccc(CC4CCN(C(C)=O)CC4)c3)c3ccccc3n2)cc1` [Compound I29, 1-acetyl-4-[(3-{[2-(4-methoxyphenyl)(4-quinolyl)]amino}phenyl)methyl]piperidine]: the IC50 lay in the range of 0.2 to 0.8 µM.
Then `CCN1CCC(Cc2cccc(Nc3cc(-c4ccc(OC)cc4)nc4ccccc34)c2)CC1` [Compound I30, {3-[(1-ethyl(4-piperidyl))methyl]phenyl}[2-(4-methoxyphenyl)(4-quinolyl)]amine], with 0.2 to 0.8 µM.
Then `COc1ccc(-c2cc(Nc3cccc(CC4CCN(C)CC4)c3)c3ccccc3n2)cc1` [Compound I31, [2-(4-methoxyphenyl)(4-quinolyl)]{3-[(1-methyl(4-piperidyl))methyl]phenyl}amine], with 0.2 to 0.8 µM.
Under `COc1ccc(-c2cc(Nc3ccc(CC4CCNCC4)cc3)c3ccccc3n2)cc1` [Compound I32, [2-(4-methoxyphenyl)(4-quinolyl)][4-(4-piperidylmethyl)phenyl]amine] stands 0.801 to 5 µM; under `CCN1CCC(Cc2ccc(Nc3cc(-c4ccc(OC)cc4)nc4ccccc34)cc2)CC1` [Compound I33, {4-[(1-ethyl(4-piperidyl))methyl]phenyl}[2-(4-methoxyphenyl)(4-quinolyl)]amine], 0.801 to 5 µM; under `COc1ccc(-c2cc(Nc3ccc(CC4CCN(C(C)=O)CC4)cc3)c3ccccc3n2)cc1` [Compound I34, 1-acetyl-4-[(4-{[2-(4-methoxyphenyl)(4-quinolyl)]amino}phenyl)methyl]piperidine], 0.801 to 5 µM.
For the compound `COc1ccc(-c2cc(Nc3ccc(CC4CCN(S(C)(=O)=O)CC4)cc3)c3ccccc3n2)cc1` [Compound I35, 4-[(4-{[2-(4-methoxyphenyl)(4-quinolyl)]amino}phenyl)methyl]-1-(methylsulfonyl)piperidine], the IC50 was in the range of 0.801 to 5 µM.
Then `COc1ccc(-c2cc(Nc3cccc(CC#N)c3)c3ccccc3n2)cc1` [Compound I36, 2-(3-{[2-(4-methoxyphenyl)-4-quinolyl]amino}phenyl)ethanenitrile], with 0.801 to 5 µM; and `COc1ccc(-c2cc(Nc3ccccc3CC3CCN(C)CC3)c3ccccc3n2)cc1` [Compound I37, [2-(4-methoxyphenyl)(4-quinolyl)]{2-[(1-methyl(4-piperidyl))methyl]phenyl}amine], with over 5 µM.
Under `COc1ccc(-c2cc(Nc3ccccc3CC3CCNCC3)c3ccccc3n2)cc1` [Compound I38, [2-(4-methoxyphenyl)(4-quinolyl)][2-(4-piperidylmethyl)phenyl]amine] stands over 5 µM.
Then `COc1ccc(-c2cc(Nc3cccc(CN(C)C)c3)c3ccccc3n2)cc1` [Compound I39, [(3-{[2-(4-methoxyphenyl)(4-quinolyl)]amino}phenyl)methyl]dimethylamine], with 0.801 to 5 µM; and `FC(F)(F)c1ccc(C(F)(F)F)c(-c2cc(Nc3cccc(CC4CCN(Cc5ccccc5)CC4)c3)c3ccccc3n2)c1` [Compound I40, {2-[2,5-bis(trifluoromethyl)phenyl](4-quinolyl)}(3-{[1-benzyl(4-piperidyl)]methyl}phenyl)amine], with over 5 µM; and `FC(F)(F)c1ccc(C(F)(F)F)c(-c2cc(Nc3cccc(CC4CCNCC4)c3)c3ccccc3n2)c1` [Compound I41, {2-[2,5-bis(trifluoromethyl)phenyl](4-quinolyl)}[3-(4-piperidylmethyl)phenyl]amine], with 0.801 to 5 µM.
For `CN(C)Cc1cccc(Nc2cc(-c3cc(C(F)(F)F)cc(C(F)(F)F)c3)nc3ccccc23)c1` [Compound I42, {[3-({2-[3,5-bis(trifluoromethyl)phenyl](4-quinolyl)}amino)phenyl]methyl}dimethylamine], the IC50 was over 5 µM.
Then `FC(F)(F)c1cc(-c2cc(Nc3ccc(CN4CCCCC4)cc3)c3ccccc3n2)cc(C(F)(F)F)c1` [Compound I43, {2-[3,5-bis(trifluoromethyl)phenyl](4-quinolyl)}[4-(piperidylmethyl)phenyl]amine], with over 5 µM; and `FC(F)(F)c1cc(-c2cc(Nc3cccc(CN4CCCC4)c3)c3ccccc3n2)cc(C(F)(F)F)c1` [Compound I44, {2-[3,5-bis(trifluoromethyl)phenyl](4-quinolyl)}[3-(pyrrolidinylmethyl)phenyl]amine], with over 5 µM; and `CN(C)Cc1cc(CO)cc(Nc2cc(-c3cccc(Cl)c3)nc3ccccc23)c1` [Compound I45, (5-[(dimethylamino)methyl]-3-{[2-(3-chlorophenyl)(4-quinolyl)]amino}phenyl)methan-1-ol], with 0.801 to 5 µM.
Under `CN1CCCC1CCNc1cc(-c2cc(C(F)(F)F)cc(C(F)(F)F)c2)nc2ccccc12` (centres unmarked) [Compound I46, {2-[3,5-bis(trifluoromethyl)phenyl](4-quinolyl)}[2-(1-methylpyrrolidin-2-yl)ethyl]amine] stands over 5 µM.
Under `CN(C)Cc1ccc(Nc2cc(-c3cc(C(F)(F)F)cc(C(F)(F)F)c3)nc3ccccc23)cc1` [Compound I47, {[4-({2-[3,5-bis(trifluoromethyl)phenyl](4-quinolyl)}amino)phenyl]methyl}dimethylamine] stands over 5 µM; under `C[N+]1(C)CCC(Cc2ccccc2Nc2cc(-c3cc(C(F)(F)F)cc(C(F)(F)F)c3)nc3ccccc23)CC1` [Compound I48, {2-[(1,1-dimethyl(4-piperidyl))methyl]phenyl} {2-[3,5-bis(trifluoromethyl)phenyl](4-quinolyl)}amine], over 5 µM.
Regarding `FC(F)(F)c1cc(-c2cc(Nc3ccccc3CC3CCNCC3)c3ccccc3n2)cc(C(F)(F)F)c1` [Compound I49, {2-[3,5-bis(trifluoromethyl)phenyl](4-quinolyl)}[2-(4-piperidylmethyl)phenyl]amine], the IC50 is over 5 µM.
Then `FC(F)(F)c1cc(-c2cc(Nc3cccc(CC4CCN(Cc5ccccc5)CC4)c3)c3ccccc3n2)cc(C(F)(F)F)c1` [Compound I50, {2-[3,5-bis(trifluoromethyl)phenyl](4-quinolyl)}(3-{[1-benzyl(4-piperidyl)]methyl}phenyl)amine], with over 5 µM.
Under `C[N+]1(C)CCC(Cc2cccc(Nc3cc(-c4cc(C(F)(F)F)cc(C(F)(F)F)c4)nc4ccccc34)c2)CC1` [Compound I51, {3-[(1,1-dimethyl(4-piperidyl))methyl]phenyl} {2-[3,5-bis(trifluoromethyl)phenyl](4-quinolyl)}amine] stands over 5 µM; under `FC(F)(F)c1cc(-c2cc(Nc3cccc(CC4CCNCC4)c3)c3ccccc3n2)cc(C(F)(F)F)c1` [Compound I52, {2-[3,5-bis(trifluoromethyl)phenyl](4-quinolyl)}[3-(4-piperidylmethyl)phenyl]amine], over 5 µM; under `CN1CCCC1CCNc1cc(-c2ccc(C(F)(F)F)cc2C(F)(F)F)nc2ccccc12` (centres unmarked) [Compound I53, {2-[2,4-bis(trifluoromethyl)phenyl](4-quinolyl)}[2-(1-methylpyrrolidin-2-yl)ethyl]amine], over 5 µM.
Regarding `CN(C)Cc1ccc(Nc2cc(-c3ccc(C(F)(F)F)cc3C(F)(F)F)nc3ccccc23)cc1` [Compound I54, {[4-({2-[2,4-bis(trifluoromethyl)phenyl](4-quinolyl)}amino)phenyl]methyl}dimethylamine], the IC50 was over 5 µM.
Then `FC(F)(F)c1ccc(-c2cc(Nc3ccccc3CC3CCNCC3)c3ccccc3n2)c(C(F)(F)F)c1` [Compound I55, {2-[2,4-bis(trifluoromethyl)phenyl](4-quinolyl)}[2-(4-piperidylmethyl)phenyl]amine], with over 5 µM.
Under `CC(C)C(=O)Nc1ccc(-c2cc(NCCCN3CCCCC3)c3ccccc3n2)cc1` [Compound I56] stands 0.801 to 5 µM; under `O=C(Nc1ccc(-c2cc(NCCCN3CCCCC3)c3ccccc3n2)cc1)c1ccccc1` [Compound I57], 0.2 to 0.8 µM.

The values above are taken from US10626094B2 (La Jolla Institute of Allergy & Immunology, priority 2014, dated 2020).
